The text below walks through data of paper PMC13220710 (Bioorganic & medicinal chemistry letters, 2025).

Like-named read-outs stand apart in the source and are kept apart here.

The test system of experiment [1] is PC3 prostate cancer cell line. In words: Anti-proliferative activity versus PC3 cells in MTS assay. Type of experiment: cell-based. A general note: Tetrazolium assays rely on reduction of a dye to a coloured formazan, in cell work by metabolically active cells.
The test system of a further experiment is PC3 cells. To be noted: cited from earlier work.

In general, IC50 refers to the midpoint of a concentration-inhibition curve. In the case of `COc1cccc2c1C(=O)c1c(O)c3c(c(O)c1C2=O)C[C@@](O)(C(=O)CO)C[C@@H]3O[C@H]1C[C@H](N)[C@H](O)[C@H](C)O1` [Doxorubicin], the IC50 in experiment [1] (Homo sapiens, PC-3, read-out: IC50, viability in prostate cancer cell line PC3) was 2.8 ± 0.8 µM.
`CC1CCN(CC[C@H]2CCCN2S(=O)(=O)c2cccc(O)c2)CC1` [SB-269970]: the IC50 in experiment [1] (read-out: IC50, viability in prostate cancer cell line PC3, MTS assay, triplicate) was found to be 52.1 ± 6.5 µM. The “effect on PC3 cells” value with PC3 cells is “inhibited proliferation and induced apoptosis in PC3 cells”.
